Reference: US10227323B2, “Glucosylceramide synthase inhibitors for the treatment of diseases” (BIOMARIN PHARMACEUTICAL INC., priority 2013, dated 2019)

Biological target: T1, GCS (Canis lupus familiaris, UniProt A0A8I3MXG6)
T1 sequence (A0A8I3MXG6 1-394): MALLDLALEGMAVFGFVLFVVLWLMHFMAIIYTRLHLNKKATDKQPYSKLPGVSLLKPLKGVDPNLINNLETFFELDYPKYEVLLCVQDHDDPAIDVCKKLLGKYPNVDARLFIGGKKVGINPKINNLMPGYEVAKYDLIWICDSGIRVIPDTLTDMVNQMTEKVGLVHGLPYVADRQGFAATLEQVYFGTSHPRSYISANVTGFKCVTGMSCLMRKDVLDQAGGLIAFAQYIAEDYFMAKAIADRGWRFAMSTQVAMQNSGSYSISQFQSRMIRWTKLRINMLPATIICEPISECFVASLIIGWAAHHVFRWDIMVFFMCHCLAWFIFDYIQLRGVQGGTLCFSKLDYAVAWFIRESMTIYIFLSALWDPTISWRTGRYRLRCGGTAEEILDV
Experiment: Assay 1: GCS Enzymatic Assay (MDCK cell lysate, C6-NBD-Ceramide, LC/MS)
Assay type: biochemical, canine
Conditions: Table 2; for % inhibition generated from Assay 1: data marked by *; for IC50: data without asterisk, read-out: IC50 (nM) generated from Assay 1
Procedure, shortened: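 LC/MS/MS measurement of glucosylceramide and NBD-ceramide after a 1 h, 37 °C reaction with 100 μM UDP-glucose and 10 μM C6-NBD-ceramide gave IC50s or percent inhibition.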

Which “% inhibition generated from Assay 1” value does the source give for `CC1CN(C[C@@H](NC(=O)C(F)(F)CCc2ccc3cc(F)ccc3c2)[C@H](O)c2ccc3c(c2)OCCO3)C1` [Compound 96, N-((1R,2R)-1-(2,3-dihydrobenzo[b][1,4]dioxin-6-yl)-1-hydroxy-3-(3-methylazetidin-1-yl)propan-2-yl)-2,2-difluoro-4-(6-fluoronaphthalen-2-yl)butanamide] here?
Its value is “A* (the compound had a % inhibition of a percent inhibition of greater than or equal to about 50%)”.

For `CC(C)Oc1ccc([C@@H](O)[C@@H](CN2CCCC2)NC(=O)C(F)(F)CCc2ccc3cc(F)ccc3c2)cn1` [Compound 97, 2,2-difluoro-4-(6-fluoronaphthalen-2-yl)-N-((1R,2R)-1-hydroxy-1-(6-isopropoxypyridin-3-yl)-3-(pyrrolidin-1-yl)propan-2-yl)butanamide], which “% inhibition generated from Assay 1” value is on record?
The value was “A* (the compound had a % inhibition of a percent inhibition of greater than or equal to about 50%)”.

For `O=C(N[C@H](CN1CCC1)[C@H](O)c1cc(F)c2c(c1)OCCO2)C(=NO)c1cc2cc(Cl)ccc2o1` [Compound 98, N-((1R,2R)-3-(azetidin-1-yl)-1-(8-fluoro-2,3-dihydrobenzo[b][1,4]dioxin-6-yl)-1-hydroxypropan-2-yl)-2-(5-chlorobenzofuran-2-yl)-2-(hydroxyimino)acetamide], which IC50 is on record?
Its IC50 is less than 50 nM.

Which IC50 does the source give for `O=C(N[C@H](CN1CCCC1)[C@H](O)c1ccc(OC2CC2)nc1)C(F)(F)c1cc2cc(Cl)ccc2o1` [Compound 99, 2-(5-chlorobenzofuran-2-yl)-N-((1R,2R)-1-(6-cyclopropoxypyridin-3-yl)-1-hydroxy-3-(pyrrolidin-1-yl)propan-2-yl)-2,2-difluoroacetamide] here?
The IC50 was less than 50 nM.

`CC1CN(C[C@@H](NC(=O)C(=O)c2cc3cc(Cl)ccc3o2)[C@H](O)c2ccc3c(c2)OCCO3)C1` [Compound 100, 2-(5-chlorobenzofuran-2-yl)-N-((1R,2R)-1-(2,3-dihydrobenzo[b][1,4]dioxin-6-yl)-1-hydroxy-3-(3-methylazetidin-1-yl)propan-2-yl)-2-oxoacetamide] was tested. Which “% inhibition generated from Assay 1” value did it give?
The value was “B* (the compound had a % inhibition of greater than or equal to about 3% but less than about 50%)”.

Which IC50 does the source give for `O=C(N[C@H](CN1CCCC1)[C@H](O)c1ccc(OC2CC2)nc1)C(F)(F)CCc1ccc2cc(F)ccc2c1` [Compound 101, N-((1R,2R)-1-(6-cyclopropoxypyridin-3-yl)-1-hydroxy-3-(pyrrolidin-1-yl)propan-2-yl)-2,2-difluoro-4-(6-fluoronaphthalen-2-yl)butanamide] here?
Its IC50 is less than 50 nM.

How did the IC50 turn out when `CC1CN(C[C@@H](NC(=O)/C(=N/O)c2cc3cc(Cl)ccc3o2)[C@H](O)c2ccc3c(c2)OCCO3)C1` [Compound 102, (E)-2-(5-chlorobenzofuran-2-yl)-N-((1R,2R)-1-(2,3-dihydrobenzo[b][1,4]dioxin-6-yl)-1-hydroxy-3-(3-methylazetidin-1-yl)propan-2-yl)-2-(hydroxyimino)acetamide] was run?
The IC50 was less than 50 nM.

For `O=C(N[C@H](CN1CCCC1)[C@H](O)c1cc(F)c2c(c1)OCCO2)/C(=N/O)c1cc2cc(Cl)ccc2o1` [Compound 104, (E)-2-(5-chlorobenzofuran-2-yl)-N-((1R,2R)-1-(8-fluoro-2,3-dihydrobenzo[b][1,4]dioxin-6-yl)-1-hydroxy-3-(pyrrolidin-1-yl)propan-2-yl)-2-(hydroxyimino)acetamide], which IC50 is on record?
Its IC50 is less than 50 nM.

How did the IC50 turn out when `O=C(N[C@H](CN1CCCC1)[C@H](O)c1ccc(OC2CCOCC2)c(Cl)c1)C(F)(F)c1cc2cc(Cl)ccc2o1` [Compound 105, N-((1R,2R)-1-(3-chloro-4-((tetrahydro-2H-pyran-4-yl)oxy)phenyl)-1-hydroxy-3-(pyrrolidin-1-yl)propan-2-yl)-2-(5-chlorobenzofuran-2-yl)-2,2-difluoroacetamide] was run?
The IC50 was less than 50 nM.

`O=C(N[C@H](CN1CCCC1)[C@H](O)c1ccc2c(c1)OCCO2)/C(CCc1ccc2cc(F)ccc2c1)=N/O` [Compound 106, (E)-N-((1R,2R)-1-(2,3-dihydrobenzo[b][1,4]dioxin-6-yl)-1-hydroxy-3-(pyrrolidin-1-yl)propan-2-yl)-4-(6-fluoronaphthalen-2-yl)-2-(hydroxyimino)butanamide] was tested. Which IC50 did it give?
Its IC50 is less than 50 nM.
